The results in this text go back to US8686018B2, “Pharmaceutical composition” (Eisai R&D Management Co., Ltd., priority 2010, dated 2014).

One may read the Ki as the equilibrium dissociation constant of an inhibitor or competing ligand from its target. Low readings indicate a stronger hold on the target, high ones a looser hold on the target. By IC50 is commonly meant the midpoint of a concentration-inhibition curve.

Structures are written as SMILES.

T1 sequence (P35408 whole entry): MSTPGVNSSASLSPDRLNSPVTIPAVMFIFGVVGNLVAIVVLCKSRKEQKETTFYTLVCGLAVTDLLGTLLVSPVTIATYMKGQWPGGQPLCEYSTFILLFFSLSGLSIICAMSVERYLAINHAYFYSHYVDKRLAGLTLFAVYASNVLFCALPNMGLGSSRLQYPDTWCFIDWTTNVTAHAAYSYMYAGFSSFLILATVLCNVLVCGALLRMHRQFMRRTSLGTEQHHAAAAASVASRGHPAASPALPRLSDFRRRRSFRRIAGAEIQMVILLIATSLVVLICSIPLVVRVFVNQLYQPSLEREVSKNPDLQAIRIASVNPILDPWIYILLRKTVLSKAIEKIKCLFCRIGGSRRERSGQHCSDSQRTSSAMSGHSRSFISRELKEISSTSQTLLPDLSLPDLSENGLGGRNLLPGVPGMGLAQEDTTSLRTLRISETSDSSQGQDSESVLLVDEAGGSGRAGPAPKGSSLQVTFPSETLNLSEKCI

One assay concerns the target T1, EP4 (Homo sapiens (Human), UniProt P35408). The experiment in a line: Radioligand EP4 receptor binding assay. Conditions: Chem-1 cell membranes overexpressing human EP4, [3H]-PGE2 displacement. Here is the method: The radioligand EP4 binding assay was performed using ChemiScreen recombinant human EP4 receptor membrane preparations from Millipore, according to manufacturer's instructions. Briefly, membranes prepared from Chem-1 cells overexpressing human EP4 cDNA (Millipore) were mixed with 1.8 nmol.L^−1 [^3H]-PGE2 and 5 μmol.L^−1 unlabelled PGE2 in the presence or absence of various concentrations of testing compounds in binding buffer (50 mmol.L^−1 HEPES, pH 7.4, 5 mmol.L^−1 MgCl2, 1 mmol.L^−1 CaCl2, 0.2% BSA) in a nonbinding 96-well plate, and incubated for 1-2 h at room temperature. Prior to filtration, a GF/C 96-well filter plate was coated with 0.33% polyethyleneimine for 30 min, then washed with 50 mmol.L^−1 HEPES, pH 7.4, 0.5% BSA. Binding reactions were transferred to the filter plate, and washed 3 times with Wash Buffer (1 mL per well per wash). The plate was dried and radioactivity counted.
Turning to `Cc1nn(C)c(Oc2cccc(C(F)(F)F)c2)c1C(=O)N[C@@H](C)c1ccc(C(=O)O)cc1` [ER-885290-00], the Ki worked out at 14 nM.
Same read-out and setting: in the case of `Cc1nn(C)c(Oc2cccc(C(F)(F)F)c2)c1C(=O)NC1(c2ccc(C(=O)O)cc2)CC1` [ER-885740-00] it was 43 nM; in that of `Cn1nc(C(F)(F)F)c(C(=O)NC2(c3ccc(C(=O)O)cc3)CC2)c1Oc1cccc(C(F)(F)F)c1` [ER-885741-00], 16 nM; in that of `C[C@H](NC(=O)c1c(C(F)F)nn(C)c1Oc1cccc(Cl)c1)c1ccc(C(=O)O)cc1` [ER-886045-00], 50 nM.
The same measure, in the same setting: in the case of `C[C@H](NC(=O)c1c(C(F)(F)F)nn(C)c1Oc1ccc(Cl)c(Cl)c1)c1ccc(C(=O)O)cc1` [ER-886074-00] it was 13 nM.
Still for that read-out and setting: as for `Cn1nc(C(F)F)c(C(=O)NC2(c3ccc(C(=O)O)cc3)CC2)c1Oc1cccc(C(F)(F)F)c1` [ER-886078-00], the figure is 8 nM; as for `C[C@H](NC(=O)c1c(C(F)F)nn(C)c1Oc1cccc(OC(F)F)c1)c1ccc(C(=O)O)cc1` [ER-886090-00], 10 nM; as for `C[C@H](NC(=O)c1c(C(F)F)nn(C)c1Oc1cccc(C(F)F)c1)c1ccc(C(=O)O)cc1` [ER-887480-00], 26 nM.

A further assay addresses T1, EP4. As to the kind of experiment: CRE-PLAP reporter assay. The format is cell-based. The following applies: SE302 (HEK/293 clone) cells with endogenous EP4, stimulated with 3 ng/mL PGE2 overnight. As for the experimental part:
Cells were maintained in DMEM/F12 (50:50) (MediaTech) supplemented with 10% FBS (Tissue Culture Biologicals) plus penicillin/streptomycin. When used for assays, cells were plated in a 96-well plate at 2×10^4 cells/100 μL/well in serum-free assay medium (DMEM/F12 supplemented with 0.1% BSA plus penicillin/streptomycin) and incubated for 4-6 h.
Exemplary compounds of the present invention were assayed according to the methods set forth above in the CRE-PLAP reporter assay described above.
(In a reporter assay the amount or activity of a reporter protein is the signal.)
`Cc1nn(C)c(Oc2ccc(Cl)cc2)c1C(=O)N[C@@H](C)c1ccc(C(=O)O)cc1` [ER-880663-00]: the half-inhibitory concentration (IC50) is 619 nM.
Same read-out and setting: as for `C[C@H](NC(=O)c1c(C(F)(F)F)nn(C)c1Oc1cccc(Cl)c1)c1ccc(C(=O)O)cc1` [ER-885289-00], the figure is 45 nM; as for `Cc1nn(C)c(Oc2cccc(C(F)(F)F)c2)c1C(=O)N[C@@H](C)c1ccc(C(=O)O)cc1` [ER-885290-00], 18 nM; as for `C[C@H](NC(=O)c1c(C(F)(F)F)nn(C)c1Oc1cccc(C(F)(F)F)c1)c1ccc(C(=O)O)cc1` [ER-885291-00], 27 nM.
On the same count and under the same terms, in the case of `Cc1nn(C)c(Oc2ccc(F)cc2)c1C(=O)N[C@@H](C)c1ccc(C(=O)O)cc1` [ER-885302-00] it was 261 nM; in that of `Cc1nn(C)c(Oc2ccc(C(F)(F)F)cc2)c1C(=O)N[C@@H](C)c1ccc(C(=O)O)cc1` [ER-885311-00], 273 nM; in that of `Cc1nn(C)c(Oc2ccc(Cl)c(Cl)c2)c1C(=O)N[C@@H](C)c1ccc(C(=O)O)cc1` [ER-885716-00], 92 nM.
In turn, `Cc1nn(C)c(Oc2cccc(F)c2)c1C(=O)N[C@@H](C)c1ccc(C(=O)O)cc1` [ER-885717-00] displayed an IC50 of 974 nM.
In the case of `Cc1nn(C)c(Oc2ccc(F)c(F)c2)c1C(=O)N[C@@H](C)c1ccc(C(=O)O)cc1` [ER-885718-00], the IC50 is 467 nM.
The same measure, in the same setting: as for `Cc1nn(C)c(Oc2cccc(F)c2F)c1C(=O)N[C@@H](C)c1ccc(C(=O)O)cc1` [ER-885719-00], the figure is 2670 nM; as for `Cc1nn(C)c(Oc2cc(F)ccc2F)c1C(=O)N[C@@H](C)c1ccc(C(=O)O)cc1` [ER-885720-00], 2220 nM.
Still for that read-out and setting: as for `Cc1nn(C)c(Oc2cc(Cl)cc(Cl)c2)c1C(=O)N[C@@H](C)c1ccc(C(=O)O)cc1` [ER-885721-00], the figure is 846 nM; as for `Cc1nn(C)c(Oc2cccc(C(F)(F)F)c2)c1C(=O)NC1(c2ccc(C(=O)O)cc2)CC1` [ER-885740-00], 12 nM.
The compound `Cn1nc(C(F)(F)F)c(C(=O)NC2(c3ccc(C(=O)O)cc3)CC2)c1Oc1cccc(C(F)(F)F)c1` [ER-885741-00] returned an IC50 of 13 nM.
The same measure, in the same setting: as for `Cn1nc(C(F)(F)F)c(C(=O)NC2(c3ccc(C(=O)O)cc3)CC2)c1Oc1cccc(Cl)c1` [ER-885743-00], the figure is 38 nM.
Compound `Cc1nn(C)c(Oc2cccc(Cl)c2)c1C(=O)N[C@@H](C)c1ccc(C(=O)O)cc1` [ER-885744-00] displayed an IC50 of 168 nM.
Regarding `Cc1ccc(Oc2c(C(=O)N[C@@H](C)c3ccc(C(=O)O)cc3)c(C)nn2C)cc1` [ER-885749-00], the IC50 amounted to 451 nM.
Compound `Cc1nn(C)c(Oc2cccc(Cl)c2Cl)c1C(=O)N[C@@H](C)c1ccc(C(=O)O)cc1` [ER-886022-00] displayed a half-inhibitory concentration (IC50) of 719 nM.
`Cc1nn(C)c(Oc2cc(F)cc(Cl)c2)c1C(=O)N[C@@H](C)c1ccc(C(=O)O)cc1` [ER-886024-00] registered an IC50 of 637 nM.
Still for that read-out and setting: in the case of `Cc1nn(C)c(Oc2cc(F)ccc2Cl)c1C(=O)N[C@@H](C)c1ccc(C(=O)O)cc1` [ER-886025-00] it was 4910 nM; in that of `Cc1cccc(Oc2c(C(=O)N[C@@H](C)c3ccc(C(=O)O)cc3)c(C)nn2C)c1` [ER-886032-00], 356 nM; in that of `Cc1cc(C)cc(Oc2c(C(=O)N[C@@H](C)c3ccc(C(=O)O)cc3)c(C)nn2C)c1` [ER-886033-00], 2120 nM.
Take `COc1cc(OC)cc(Oc2c(C(=O)N[C@@H](C)c3ccc(C(=O)O)cc3)c(C)nn2C)c1` [ER-886035-00]: half-maximal inhibition (IC50) was put at 3660 nM.
`C[C@H](NC(=O)c1c(C(F)F)nn(C)c1Oc1cccc(Cl)c1)c1ccc(C(=O)O)cc1` [ER-886045-00] yielded an IC50 of 18 nM.
The same measure, in the same setting: in the case of `Cc1nn(C)c(Oc2cccc(OC(F)(F)F)c2)c1C(=O)N[C@@H](C)c1ccc(C(=O)O)cc1` [ER-886061-00] it was 89 nM; in that of `C[C@H](NC(=O)c1c(C(F)(F)F)nn(C)c1Oc1cccc(F)c1)c1ccc(C(=O)O)cc1` [ER-886072-00], 132 nM; in that of `C[C@H](NC(=O)c1c(C(F)(F)F)nn(C)c1Oc1ccc(F)c(F)c1)c1ccc(C(=O)O)cc1` [ER-886073-00], 109 nM.
Same read-out and setting: in the case of `C[C@H](NC(=O)c1c(C(F)(F)F)nn(C)c1Oc1ccc(Cl)c(Cl)c1)c1ccc(C(=O)O)cc1` [ER-886074-00] it was 10 nM; in that of `Cc1nn(C)c(Oc2cccc(Cl)c2)c1C(=O)NC1(c2ccc(C(=O)O)cc2)CC1` [ER-886077-00], 85 nM; in that of `Cn1nc(C(F)F)c(C(=O)NC2(c3ccc(C(=O)O)cc3)CC2)c1Oc1cccc(C(F)(F)F)c1` [ER-886078-00], 9 nM.
`Cc1nn(C)c(Oc2cccc(OC(F)F)c2)c1C(=O)N[C@@H](C)c1ccc(C(=O)O)cc1` [ER-886080-00]: the IC50 was 58 nM.
Still for that read-out and setting: in the case of `C[C@H](NC(=O)c1c(C(F)(F)F)nn(C)c1Oc1cccc(OC(F)F)c1)c1ccc(C(=O)O)cc1` [ER-886082-00] it was 88 nM.
Still for that read-out and setting: as for `C[C@H](NC(=O)c1c(C(F)F)nn(C)c1Oc1cccc(OC(F)F)c1)c1ccc(C(=O)O)cc1` [ER-886090-00], the figure is 17 nM; as for `C[C@H](NC(=O)c1c(C(F)F)nn(C)c1Oc1cccc(C(F)F)c1)c1ccc(C(=O)O)cc1` [ER-887480-00], 51 nM; as for `Cc1nn(C)c(Oc2cccc(C(F)F)c2)c1C(=O)N[C@@H](C)c1ccc(C(=O)O)cc1` [ER-887495-00], 219 nM.
Same read-out and setting: in the case of `C[C@H](NC(=O)c1c(C(F)(F)F)nn(C)c1Oc1cccc(C(F)F)c1)c1ccc(C(=O)O)cc1` [ER-887995-00] it was 187 nM.
Regarding `C[C@H](NC(=O)c1c(C(F)F)nn(C)c1Oc1ccc(Cl)c(Cl)c1)c1ccc(C(=O)O)cc1` [ER-888024-00], the IC50 turned out to be 31 nM.
On the same count and under the same terms, in the case of `Cn1nc(C(F)F)c(C(=O)NC2(c3ccc(C(=O)O)cc3)CC2)c1Oc1ccc(Cl)c(Cl)c1` [ER-888348-00] it was 17 nM; in that of `Cn1nc(C(F)F)c(C(=O)NC2(c3ccc(C(=O)O)cc3)CC2)c1Oc1cccc(Cl)c1` [ER-888355-00], 157 nM.
Same read-out and setting: as for `Cn1nc(C(F)(F)F)c(C(=O)NC2(c3ccc(C(=O)O)cc3)CC2)c1Oc1ccc(Cl)c(Cl)c1` [ER-888363-00], the figure is 8 nM; as for `Cn1nc(C(F)(F)F)c(C(=O)NC2(c3ccc(C(=O)O)cc3)CC2)c1Oc1ccc(C(F)(F)F)cc1` [ER-888364-00], 12 nM; as for `C[C@H](NC(=O)c1c(C(F)(F)F)nn(C)c1Oc1ccc(C(F)(F)F)cc1)c1ccc(C(=O)O)cc1` [ER-888365-00], 28 nM.
Same read-out and setting: as for `Cn1nc(C(F)F)c(C(=O)NC2(c3ccc(C(=O)O)cc3)CC2)c1Oc1ccc(C(F)(F)F)cc1` [ER-888366-00], the figure is 15 nM; as for `C[C@H](NC(=O)c1c(C(F)F)nn(C)c1Oc1ccc(C(F)(F)F)cc1)c1ccc(C(=O)O)cc1` [ER-888367-00], 23 nM.
Turning to `Cn1nc(C(F)(F)F)c(C(=O)NC2(c3ccc(C(=O)O)cc3)CC2)c1Oc1ccc(Cl)cc1` [ER-888368-00], 18 nM corresponded to half-maximal inhibition (IC50).
Still for that read-out and setting: as for `C[C@H](NC(=O)c1c(C(F)(F)F)nn(C)c1Oc1ccc(Cl)cc1)c1ccc(C(=O)O)cc1` [ER-888369-00], the figure is 89 nM; as for `Cn1nc(C(F)F)c(C(=O)NC2(c3ccc(C(=O)O)cc3)CC2)c1Oc1ccc(Cl)cc1` [ER-888370-00], 35 nM.
Still for that read-out and setting: in the case of `C[C@H](NC(=O)c1c(C(F)F)nn(C)c1Oc1ccc(Cl)cc1)c1ccc(C(=O)O)cc1` [ER-888371-00] it was 89 nM.
